The record followed here is patent US11878018B1, “Phosphorylation of Syntaxin 17 by TBK1 controls autophagy initiation” (priority 2018, dated 2024).

In assay [1] the test system is LDH sequestration in autophagosomes, HeLa cells. The experiment in a line: LDH (lactate dehydrogenase) sequestration assay. The class given is cell-based, human. The settings on record: WT HeLa cells, EBSS 2 h in presence of bafilomycin A1; 3-methyladenine 10 mM as positive control (FIG. 7N,O).
In assay [2] the test system is Stx17 phosphorylation (Stx17^pS02) by TBK1. Put plainly: Western blot of Stx17 phosphorylation at Ser-202 in HeLa cells. The class given is cell-based, human. (Immunoblotting shows a protein as a band on a membrane.)

The structures appear in SMILES notation.

As to `Cn1cnc(N)c2ncnc1-2` [3MA, 3-methyladenine], the “LDH (bulk autophagy cargo) sequestration in autophagosomes” value in assay [1] was “reduction in cargo sequestration”.

Regarding `O=C(NCCCNc1nc(Nc2cccc(NC(=O)N3CCCC3)c2)ncc1I)c1cccs1` [BX795], in assay [2] (cells stimulated with LPS, HeLa WT or TBK1 KO cells, Western blot (FIG. 8I)), the “Stx17 phosphorylation (Stx17^pS02)” value is “inhibited Stx17 phosphorylation”. Further, the “baseline Stx17^pS02 levels” value in assay [2] (unstimulated cells, Western blot (FIG. 8I)) was “reduced the low baseline levels”.

Turning to `CC(=O)N[C@H]1C(O)O[C@H](CO)[C@@H](O)[C@@H]1O[C@H](C)C(=O)N[C@@H](C)C(=O)N[C@H](CCC(=O)O)C(N)=O` (mixture of isomers) [MDP, muramyl-dipeptide], the “Stx17^pS02 band response to agonists of TBK1” value in assay [2] (HeLa cells, Western blot (FIG. 8H), band also detectable in resting cells) is reported as “responsive”.
